# Test results as given in patent publication EP3782997A1, “FUSED PYRIMIDINE COMPOUNDS AND PHARMACEUTICAL COMPOSITIONS THEREOF FOR THE TREATMENT OF FIBROTIC DISEASES” (Galapagos N.V., priority 2019, dated 2021).
# Target: hENPP2 (Homo sapiens, UniProt Q13822)
# Assay: Human ENPP2 (hENPP2) biochemical assay using LPC as substrate
# Conditions: 150 µM LPC (palmitoyl 16:0), 37°C for 30 min
# Method in brief: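 Enzyme at 1 or 3 µg/mL final in Tris-HCl pH 8.5, NaCl, KCl, CaCl2, fatty-acid-free BSA; reaction started with 150 µM LPC 16:0 (as added), 30 min at 37°C. Released choline developed with choline oxidase/peroxidase/TOOS/4-aminoantipyrine plus EGTA stop, read at 555 nm after 30 min; 1/3 dilutions from 50 µM give IC50.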
row,Compound,IC50 [nM]
1,"Cc1cc(C)cc(Nc2ncc3c(n2)CN(C2CCN(C(=O)c4ccc5[nH]nnc5c4)C(C(F)(F)F)C2)C3)c1 (stereo not drawn) [compound 107, 1H-benzotriazol-5-yl-[4-[2-(3,5-dimethylanilino)-5,7-dihydropyrrolo[3,4-d]pyrimidin-6-yl]-2-(trifluoromethyl)-1-piperidyl]methanone]",0.01 to 100
2,"Cc1cc(C)cc(Nc2ncc3c(n2)CCN(C2CCN(C(=O)c4ccc5[nH]nnc5c4)CC2)CC3)c1 [compound 109, 1H-benzotriazol-5-yl-[4-[2-(3,5-dimethylanilino)-5,6,8,9-tetrahydropyrimido[4,5-d]azepin-7-yl]-1-piperidyl]methanone]",0.01 to 100
3,"COc1cc2[nH]nnc2cc1C(=O)N1CC[C@H](N2Cc3cnc(Nc4cc(C)cc(C)c4)nc3C2)C[C@@H]1C [compound 113, [(2S,4S)-4-[2-(3,5-dimethylanilino)-5,7-dihydropyrrolo[3,4-d]pyrimidin-6-yl]-2-methyl-1-piperidyl]-(6-methoxy-1H-benzotriazol-5-yl)methanone]",0.01 to 100
4,"Cc1cc(C)cc(Nc2ncc3c(n2)CN(C2CC4CCC(C2)N4C(=O)c2ccc4[nH]nnc4c2)C3)c1 (stereo not drawn) [compound 114, 1H-benzotriazol-5-yl-[3-[2-(3,5-dimethylanilino)-5,7-dihydropyrrolo[3,4-d]pyrimidin-6-yl]-8-azabicyclo[3.2.1]octan-8-yl]methanone]",100 to 500
5,"Cc1cc(C)cc(Nc2ncc3c(n2)CN([C@H]2CCN(C(=O)c4cc5nn[nH]c5cc4F)[C@H](C)C2)C3)c1 [compound 116, [(2R,4S)-4-[2-(3,5-dimethylanilino)-5,7-dihydropyrrolo[3,4-d]pyrimidin-6-yl]-2-methyl-1-piperidyl]-(6-fluoro-1H-benzotriazol-5-yl)methanone]",0.01 to 100
6,"COc1cc2[nH]nnc2cc1C(=O)N1CC[C@H](N2Cc3cnc(Nc4cc(C)cc(C)c4)nc3C2)C[C@H]1C [compound 120, [(2R,4S)-4-[2-(3,5-dimethylanilino)-5,7-dihydropyrrolo[3,4-d]pyrimidin-6-yl]-2-methyl-1-piperidyl]-(6-methoxy-1H-benzotriazol-5-yl)methanone]",0.01 to 100
7,"Cc1cc(C)cc(Nc2ncc3c(n2)CN([C@H]2CCN(C(=O)c4cccc(-c5nnn[nH]5)c4)[C@@H](C)C2)C3)c1 [compound 123, [(2S,4S)-4-[2-(3,5-dimethylanilino)-5,7-dihydropyrrolo[3,4-d]pyrimidin-6-yl]-2-methyl-1-piperidyl]-[3-(1H-tetrazol-5-yl)phenyl]methanone]",> 1000
8,"COc1cc(Nc2ncc3c(n2)CN([C@@H]2CCN(C(=O)c4ccc5[nH]nnc5c4)[C@H](C)C2)C3)cc(C(F)(F)F)c1 [compound 127, 1H-benzotriazol-5-yl-[(2R,4R)-4-[2-[3-methoxy-5-(trifluoromethyl)anilino]-5,7-dihydropyrrolo[3,4-d]pyrimidin-6-yl]-2-methyl-1-piperidyl]methanone]",0.01 to 100
9,"C[C@@H]1C[C@@H](N2Cc3cnc(Nc4cc(C#N)cc(C(F)(F)F)c4)nc3C2)CCN1C(=O)c1ccc2[nH]nnc2c1 [compound 128, 3-[[6-[(2R,4S)-1-(1H-benzotriazole-5-carbonyl)-2-methyl-4-piperidyl]-5,7-dihydropyrrolo[3,4-d]pyrimidin-2-yl]amino]-5-(trifluoromethyl)benzonitrile]",0.01 to 100
10,"Cc1ccc(Nc2ncc3c(n2)CN([C@@H]2CCN(C(=O)c4ccc5[nH]nnc5c4)[C@H](C)C2)C3)cc1 [compound 134, 1H-benzotriazol-5-yl-[(2R,4R)-2-methyl-4-[2-(4-methylanilino)-5,7-dihydropyrrolo[3,4-d]pyrimidin-6-yl]-1-piperidyl]methanone]",0.01 to 100
11,"Cc1cc(C)cc(Nc2ncc3c(n2)CN(C2CCN(C(=O)c4cc5nn[nH]c5cn4)CC2)C3)c1 [compound 140, [4-[2-(3,5-dimethylanilino)-5,7-dihydropyrrolo[3,4-d]pyrimidin-6-yl]-1-piperidyl]-(3H-triazolo[4,5-c]pyridin-6-yl)methanone]",100 to 500
12,"C[C@@H]1C[C@@H](N2Cc3cnc(Nc4ccc(F)cc4)nc3C2)CCN1C(=O)c1ccc2[nH]nnc2c1 [compound 143, 1H-benzotriazol-5-yl-[(2R,4S)-4-[2-(4-fluoroanilino)-5,7-dihydropyrrolo[3,4-d]pyrimidin-6-yl]-2-methyl-1-piperidyl]methanone]",500 to 1000
13,"COc1ccc(Nc2ncc3c(n2)CN([C@@H]2CCN(C(=O)c4ccc5[nH]nnc5c4)[C@H](C)C2)C3)cc1 [compound 149, 1H-benzotriazol-5-yl-[(2R,4R)-4-[2-(4-methoxyanilino)-5,7-dihydropyrrolo[3,4-d]pyrimidin-6-yl]-2-methyl-1-piperidyl] methanone]",0.01 to 100
14,"C[C@@H]1C[C@H](N2Cc3cnc(Nc4ccc(S(F)(F)(F)(F)F)cc4)nc3C2)CCN1C(=O)c1ccc2[nH]nnc2c1 [compound 150, 1H-benzotriazol-5-yl-[(2R,4R)-2-methyl-4-[2-[4-(pentafluoro-λ^6-sulfanyl)anilino]-5,7-dihydropyrrolo[3,4-d]pyrimidin-6-yl]-1-piperidyl]methanone]",0.01 to 100
15,"C[C@@H]1C[C@H](N2Cc3cnc(Nc4ccc(C(F)(F)F)cc4)nc3C2)CCN1C(=O)c1ccc2[nH]nnc2c1 [compound 152, 1H-benzotriazol-5-yl-[(2R,4R)-2-methyl-4-[2-[4-(trifluoromethyl)anilino]-5,7-dihydropyrrolo[3,4-d]pyrimidin-6-yl]-1-piperidyl]methanone]",0.01 to 100
16,"Cc1cc(C)cc(Nc2ncc3c(n2)CN([C@@H]2CCN(C(=O)c4ccc5c(c4)CC(=O)N5)[C@H](C)C2)C3)c1 [compound 156, 5-[(2R,4R)-4-[2-(3,5-dimethylanilino)-5,7-dihydropyrrolo[3,4-d]pyrimidin-6-yl]-2-methyl-piperidine-1-carbonyl]indolin-2-one]",0.01 to 100

# Now from value to compound:
row,IC50 [nM],Compound
1,0.01 to 100,"COc1cc2[nH]nnc2cc1C(=O)N1CC[C@@H](N2Cc3cnc(Nc4cc(C)cc(C)c4)nc3C2)C[C@@H]1C [compound 112, [(2S,4R)-4-[2-(3,5-dimethylanilino)-5,7-dihydropyrrolo[3,4-d]pyrimidin-6-yl]-2-methyl-1-piperidyl]-(6-methoxy-1H-benzotriazol-5-yl)methanone]"
2,0.01 to 100,"COc1cc(Nc2ncc3c(n2)CN([C@@H]2CCN(C(=O)c4ccc5[nH]nnc5c4)[C@H](C)C2)C3)ccc1F [compound 126, 1H-benzotriazol-5-yl-[(2R,4R)-4-[2-(4-fluoro-3-methoxy-anilino)-5,7-dihydropyrrolo[3,4-d]pyrimidin-6-yl]-2-methyl-1-piperidyl]methanone]"
3,0.01 to 100,"C[C@@H]1C[C@H](N2Cc3cnc(Nc4cc(C(N)=O)cc(C(F)(F)F)c4)nc3C2)CCN1C(=O)c1ccc2[nH]nnc2c1 [compound 129, 3-[[6-[(2R,4R)-1-(1H-benzotriazole-5-carbonyl)-2-methyl-4-piperidyl]-5,7-dihydropyrrolo[3,4-d]pyrimidin-2-yl]amino]-5-(trifluoromethyl)benzamide]"
4,0.01 to 100,"C[C@@H]1C[C@H](N2Cc3cnc(Nc4ccc(Cl)cc4)nc3C2)CCN1C(=O)c1ccc2[nH]nnc2c1 [compound 135, 1H-benzotriazol-5-yl-[(2R,4R)-4-[2-(4-chloroanilino)-5,7-dihydropyrrolo[3,4-d]pyrimidin-6-yl]-2-methyl-1-piperidyl]methanone]"
5,0.01 to 100,"CCOc1cc2[nH]nnc2cc1C(=O)N1CCC(N2Cc3cnc(Nc4cc(C)cc(C)c4)nc3C2)CC1 [compound 141, [4-[2-(3,5-dimethylanilino)-5,7-dihydropyrrolo[3,4-d]pyrimidin-6-yl]-1-piperidyl]-(6-ethoxy-1H-benzotriazol-5-yl)methanone]"
6,0.01 to 100,"C[C@@H]1C[C@H](N2Cc3cnc(Nc4ccc(F)cc4)nc3C2)CCN1C(=O)c1ccc2[nH]nnc2c1 [compound 144, 1H-benzotriazol-5-yl-[(2R,4R)-4-[2-(4-fluoroanilino)-5,7-dihydropyrrolo[3,4-d]pyrimidin-6-yl]-2-methyl-1-piperidyl] methanone]"
7,> 1000,"COC(=O)c1cccc(C(=O)N2CC[C@@H](N3Cc4cnc(Nc5cc(C)cc(C)c5)nc4C3)C[C@H]2C)c1 [compound 145, methyl 3-[(2R,4R)-4-[2-(3,5-dimethylanilino)-5,7-dihydropyrrolo[3,4-d]pyrimidin-6-yl]-2-methyl-piperidine-1-carbonyl]benzoate]"
8,0.01 to 100,"Cc1cc(C)cc(Nc2ncc3c(n2)CN([C@@H]2CCN(C(=O)c4c[nH]nn4)[C@H](C)C2)C3)c1 [compound 147, [(2R,4R)-4-[2-(3,5-dimethylanilino)-5,7-dihydropyrrolo[3,4-d]pyrimidin-6-yl]-2-methyl-1-piperidyl]-(1H-triazol-4-yl)methanone]"
9,0.01 to 100,"COc1cc(Nc2ncc3c(n2)CN([C@@H]2CCN(C(=O)c4ccc5[nH]nnc5c4)[C@H](C)C2)C3)cc(OC)c1 [compound 151, 1H-benzotriazol-5-yl-[(2R,4R)-4-[2-(3,5-dimethoxyanilino)-5,7-dihydropyrrolo[3,4-d]pyrimidin-6-yl]-2-methyl-1-piperidyl]methanone]"
10,0.01 to 100,"Cc1cc(C)cc(Nc2ncc3c(n2)CN([C@@H]2CCN(C(=O)c4ccnc(NS(C)(=O)=O)c4)[C@H](C)C2)C3)c1 [compound 154, N-[4-[(2R,4R)-4-[2-(3,5-dimethylanilino)-5,7-dihydropyrrolo[3,4-d]pyrimidin-6-yl]-2-methyl-piperidine-1-carbonyl]-2-pyridyl]methanesulfonamide]"
11,0.01 to 100,"Cc1cc(C)cc(Nc2ncc3c(n2)CN([C@@H]2CCN(C(=O)c4ccc(NS(C)(=O)=O)nc4)[C@H](C)C2)C3)c1 [compound 155, N-[5-[(2R,4R)-4-[2-(3,5-dimethylanilino)-5,7-dihydropyrrolo[3,4-d]pyrimidin-6-yl]-2-methyl-piperidine-1-carbonyl]-2-pyridyl]methanesulfon amide]"
